According to paper PMC4207660, “Identification and Characterization of Hundreds of Potent and Selective Inhibitors of Trypanosoma brucei Growth from a Kinase-Targeted Library Screening Campaign” (PLoS Neglected Tropical Diseases, 2014):
≈ marks a conversion by molar mass, not a printed value. Where two headings read alike, the source gives them in different places.

Key:
Cytochrome P450 (CYP450) = Cytochrome P450 (CYP450) (Homo sapiens, UniProt P08684); assay: Cytochrome P450 inhibition profile; assay type: in vitro ADME; settings: Measured
Chain of Cytochrome P450 (CYP450) (P08684 2-503 limits assumed): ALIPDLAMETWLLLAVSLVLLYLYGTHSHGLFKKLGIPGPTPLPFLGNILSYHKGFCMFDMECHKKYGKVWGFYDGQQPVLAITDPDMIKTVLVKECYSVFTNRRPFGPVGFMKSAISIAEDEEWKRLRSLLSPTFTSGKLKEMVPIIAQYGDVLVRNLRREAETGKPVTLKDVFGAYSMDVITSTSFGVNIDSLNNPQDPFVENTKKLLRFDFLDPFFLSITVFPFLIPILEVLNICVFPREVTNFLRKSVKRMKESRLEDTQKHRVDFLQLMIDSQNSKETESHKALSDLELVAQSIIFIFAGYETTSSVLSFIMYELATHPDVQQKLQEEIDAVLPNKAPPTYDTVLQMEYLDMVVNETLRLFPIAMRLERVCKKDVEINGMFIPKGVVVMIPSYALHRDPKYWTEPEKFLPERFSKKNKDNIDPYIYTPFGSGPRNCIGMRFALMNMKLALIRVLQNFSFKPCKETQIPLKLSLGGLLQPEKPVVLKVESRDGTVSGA
Experimental: The P450 inhibition profile of the inhibitors was determined as previously described.

JAK3 = target: T1, JAK3 (Homo sapiens, UniProt P52333); assay: Human kinase selectivity screening: JAK3; assay type: biochemical; settings: read-out: JAK3 pIC50 values (converted)
T1 sequence (P52333 1-1124): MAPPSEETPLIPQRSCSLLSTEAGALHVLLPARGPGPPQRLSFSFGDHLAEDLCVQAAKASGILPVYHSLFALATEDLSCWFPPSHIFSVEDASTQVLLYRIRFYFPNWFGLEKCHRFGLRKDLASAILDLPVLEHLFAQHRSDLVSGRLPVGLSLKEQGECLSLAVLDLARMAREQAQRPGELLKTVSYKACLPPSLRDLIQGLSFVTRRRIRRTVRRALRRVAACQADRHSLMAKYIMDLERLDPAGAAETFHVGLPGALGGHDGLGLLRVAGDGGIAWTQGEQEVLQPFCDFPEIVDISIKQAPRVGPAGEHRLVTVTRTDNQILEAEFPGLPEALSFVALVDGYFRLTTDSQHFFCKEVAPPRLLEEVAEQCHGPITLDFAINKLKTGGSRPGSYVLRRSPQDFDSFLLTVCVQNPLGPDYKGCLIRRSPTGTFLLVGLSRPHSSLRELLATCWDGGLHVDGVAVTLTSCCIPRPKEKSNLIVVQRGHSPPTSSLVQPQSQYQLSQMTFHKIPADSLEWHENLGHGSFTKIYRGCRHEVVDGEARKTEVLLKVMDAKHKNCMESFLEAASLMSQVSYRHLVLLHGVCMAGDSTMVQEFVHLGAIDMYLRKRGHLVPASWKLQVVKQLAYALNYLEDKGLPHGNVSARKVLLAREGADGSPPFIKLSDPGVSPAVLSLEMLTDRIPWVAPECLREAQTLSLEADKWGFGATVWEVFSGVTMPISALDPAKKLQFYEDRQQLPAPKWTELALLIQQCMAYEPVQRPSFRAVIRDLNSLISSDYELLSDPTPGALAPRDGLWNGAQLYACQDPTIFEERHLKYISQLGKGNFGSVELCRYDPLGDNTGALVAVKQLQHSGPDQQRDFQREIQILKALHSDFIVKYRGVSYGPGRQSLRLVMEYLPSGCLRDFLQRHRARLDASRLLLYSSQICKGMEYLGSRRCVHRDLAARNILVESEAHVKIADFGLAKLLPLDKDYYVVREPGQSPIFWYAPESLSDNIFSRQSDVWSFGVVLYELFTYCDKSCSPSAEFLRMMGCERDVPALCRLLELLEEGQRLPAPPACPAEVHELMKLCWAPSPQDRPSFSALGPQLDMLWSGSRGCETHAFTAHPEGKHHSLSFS
Text: (§1) These kinases were chosen for general selectivity screening owing to their broad representation of the human kinome.

LRRK2 = LRRK2 (Homo sapiens, UniProt Q5S007); assay: Human kinase selectivity screening: LRRK2; assay type: biochemical; settings: read-out: LRRK2 pIC50 values (converted)
Text: as §1

[1] = GSK in-house artificial membrane permeability assay; assay type: in vitro ADME; settings: PAMPA, pH 7.4, Measured
Experimental: 250 µL and 100 µL 50 mM phosphate buffer pH 7.4 with 0.5% encapsin was applied to the donor and receiver compartments, respectively. 2.5 µL of a 10 mM stock solution of compound in DMSO was added to the donor compartment. The assay was incubated at RT for 3 hours. […] The permeability (logPapp) measures how fast molecules pass through the lipid membrane is expressed in nm/s.

JNK1 = JNK1 (Homo sapiens, UniProt P45983); assay: Human kinase selectivity screening: JNK1; assay type: biochemical; settings: read-out: JNK1 pIC50 values (converted)
Chain of JNK1 (P45983 whole entry): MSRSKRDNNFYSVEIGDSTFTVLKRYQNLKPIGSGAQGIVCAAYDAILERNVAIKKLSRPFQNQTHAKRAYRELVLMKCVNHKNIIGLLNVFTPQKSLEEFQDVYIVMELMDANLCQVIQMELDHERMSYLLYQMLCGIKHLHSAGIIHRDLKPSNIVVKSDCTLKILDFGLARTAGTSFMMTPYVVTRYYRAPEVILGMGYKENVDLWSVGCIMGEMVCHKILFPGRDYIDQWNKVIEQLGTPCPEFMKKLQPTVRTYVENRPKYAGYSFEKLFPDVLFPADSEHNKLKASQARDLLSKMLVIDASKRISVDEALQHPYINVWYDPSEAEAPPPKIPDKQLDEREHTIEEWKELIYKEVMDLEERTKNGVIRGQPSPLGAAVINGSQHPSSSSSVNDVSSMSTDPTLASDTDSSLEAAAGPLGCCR
Text: as §1

BTK = BTK (Homo sapiens, UniProt Q06187); assay: Human kinase selectivity screening: BTK; assay type: biochemical; settings: read-out: BTK pIC50 values (converted)
Chain of BTK (Q06187 whole entry): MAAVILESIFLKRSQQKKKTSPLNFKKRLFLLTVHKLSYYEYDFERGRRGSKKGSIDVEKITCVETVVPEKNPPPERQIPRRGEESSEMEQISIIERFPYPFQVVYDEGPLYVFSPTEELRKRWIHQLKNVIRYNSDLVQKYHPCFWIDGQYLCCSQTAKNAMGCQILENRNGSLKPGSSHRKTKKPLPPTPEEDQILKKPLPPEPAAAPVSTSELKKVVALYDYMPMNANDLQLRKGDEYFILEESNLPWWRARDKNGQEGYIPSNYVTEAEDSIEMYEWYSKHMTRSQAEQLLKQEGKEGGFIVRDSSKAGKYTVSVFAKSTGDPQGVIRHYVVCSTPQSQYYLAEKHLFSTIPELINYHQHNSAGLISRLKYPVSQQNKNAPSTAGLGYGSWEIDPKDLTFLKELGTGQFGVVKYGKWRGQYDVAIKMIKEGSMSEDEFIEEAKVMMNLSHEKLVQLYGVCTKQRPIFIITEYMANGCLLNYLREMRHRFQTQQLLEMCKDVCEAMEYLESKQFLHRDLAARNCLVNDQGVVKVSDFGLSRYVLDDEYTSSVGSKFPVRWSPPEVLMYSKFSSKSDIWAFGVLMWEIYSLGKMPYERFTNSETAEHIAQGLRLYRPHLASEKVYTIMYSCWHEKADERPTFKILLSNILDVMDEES
Text: as §1

[2] = test system: T. brucei brucei parasites (Lister 427 strain); assay: Dose response growth inhibition assay (resazurin, 72 h); assay type: cell-based; settings: Trypanosoma brucei; read-out: T brucei pEC50 (converted)
[3] = CLND kinetic solubility assay; assay type: physicochemical; settings: phosphate buffered saline, pH 7.4, aqueous buffer, kinetic from dmso stock; Measured; read-out: Aq Sol
Experimental: 5 µL of 10 mM DMSO stock solution was diluted to 100 µL with pH 7.4 phosphate buffered saline, equilibrated for 1 hour at room temperature, filtered through Millipore MultiscreenHTS-PCF filter plates (MSSL BPC). The filtrate was quantified by suitably calibrated flow injection Chemi-Luminescent Nitrogen Detection.

EGFR = EGFR (Homo sapiens, UniProt P00533); assay: Human kinase selectivity screening: EGFR; assay type: biochemical; settings: read-out: EGFR pIC50 values (converted)
Chain of EGFR (P00533 25-1210): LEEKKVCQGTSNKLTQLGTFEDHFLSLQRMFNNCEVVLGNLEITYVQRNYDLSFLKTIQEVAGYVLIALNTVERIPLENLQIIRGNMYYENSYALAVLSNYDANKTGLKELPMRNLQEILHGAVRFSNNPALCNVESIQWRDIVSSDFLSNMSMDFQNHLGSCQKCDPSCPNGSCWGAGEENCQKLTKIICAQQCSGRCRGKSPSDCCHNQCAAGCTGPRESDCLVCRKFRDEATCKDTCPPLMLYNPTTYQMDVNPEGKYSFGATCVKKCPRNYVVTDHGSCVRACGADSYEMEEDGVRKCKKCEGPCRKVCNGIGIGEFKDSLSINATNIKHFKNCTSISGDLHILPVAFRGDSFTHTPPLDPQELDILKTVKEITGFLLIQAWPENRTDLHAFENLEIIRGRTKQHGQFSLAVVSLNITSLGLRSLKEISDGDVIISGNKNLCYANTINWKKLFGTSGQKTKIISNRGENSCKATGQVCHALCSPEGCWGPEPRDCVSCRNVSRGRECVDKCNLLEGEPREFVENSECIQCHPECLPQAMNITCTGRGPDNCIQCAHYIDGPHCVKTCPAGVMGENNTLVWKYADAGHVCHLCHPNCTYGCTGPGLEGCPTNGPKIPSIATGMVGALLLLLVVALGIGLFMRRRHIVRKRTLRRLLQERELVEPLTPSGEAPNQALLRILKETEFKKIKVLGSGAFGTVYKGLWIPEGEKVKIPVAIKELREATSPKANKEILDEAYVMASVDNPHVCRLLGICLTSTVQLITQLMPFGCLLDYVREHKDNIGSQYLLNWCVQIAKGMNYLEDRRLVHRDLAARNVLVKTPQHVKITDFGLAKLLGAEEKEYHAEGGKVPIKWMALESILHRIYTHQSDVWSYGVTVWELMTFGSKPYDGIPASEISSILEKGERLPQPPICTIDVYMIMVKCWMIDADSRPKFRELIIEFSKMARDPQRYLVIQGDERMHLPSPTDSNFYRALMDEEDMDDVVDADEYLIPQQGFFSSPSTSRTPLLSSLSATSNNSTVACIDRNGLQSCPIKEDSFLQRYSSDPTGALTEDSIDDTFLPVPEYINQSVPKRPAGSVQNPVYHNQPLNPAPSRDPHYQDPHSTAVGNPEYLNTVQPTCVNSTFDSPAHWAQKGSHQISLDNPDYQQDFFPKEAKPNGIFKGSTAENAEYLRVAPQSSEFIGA
Text: as §1

ROCK1 = ROCK1 (Homo sapiens, UniProt Q13464); assay: Human kinase selectivity screening: ROCK1; assay type: biochemical; settings: read-out: ROCK1 pIC50 values (converted)
Chain of ROCK1 (Q13464 whole entry): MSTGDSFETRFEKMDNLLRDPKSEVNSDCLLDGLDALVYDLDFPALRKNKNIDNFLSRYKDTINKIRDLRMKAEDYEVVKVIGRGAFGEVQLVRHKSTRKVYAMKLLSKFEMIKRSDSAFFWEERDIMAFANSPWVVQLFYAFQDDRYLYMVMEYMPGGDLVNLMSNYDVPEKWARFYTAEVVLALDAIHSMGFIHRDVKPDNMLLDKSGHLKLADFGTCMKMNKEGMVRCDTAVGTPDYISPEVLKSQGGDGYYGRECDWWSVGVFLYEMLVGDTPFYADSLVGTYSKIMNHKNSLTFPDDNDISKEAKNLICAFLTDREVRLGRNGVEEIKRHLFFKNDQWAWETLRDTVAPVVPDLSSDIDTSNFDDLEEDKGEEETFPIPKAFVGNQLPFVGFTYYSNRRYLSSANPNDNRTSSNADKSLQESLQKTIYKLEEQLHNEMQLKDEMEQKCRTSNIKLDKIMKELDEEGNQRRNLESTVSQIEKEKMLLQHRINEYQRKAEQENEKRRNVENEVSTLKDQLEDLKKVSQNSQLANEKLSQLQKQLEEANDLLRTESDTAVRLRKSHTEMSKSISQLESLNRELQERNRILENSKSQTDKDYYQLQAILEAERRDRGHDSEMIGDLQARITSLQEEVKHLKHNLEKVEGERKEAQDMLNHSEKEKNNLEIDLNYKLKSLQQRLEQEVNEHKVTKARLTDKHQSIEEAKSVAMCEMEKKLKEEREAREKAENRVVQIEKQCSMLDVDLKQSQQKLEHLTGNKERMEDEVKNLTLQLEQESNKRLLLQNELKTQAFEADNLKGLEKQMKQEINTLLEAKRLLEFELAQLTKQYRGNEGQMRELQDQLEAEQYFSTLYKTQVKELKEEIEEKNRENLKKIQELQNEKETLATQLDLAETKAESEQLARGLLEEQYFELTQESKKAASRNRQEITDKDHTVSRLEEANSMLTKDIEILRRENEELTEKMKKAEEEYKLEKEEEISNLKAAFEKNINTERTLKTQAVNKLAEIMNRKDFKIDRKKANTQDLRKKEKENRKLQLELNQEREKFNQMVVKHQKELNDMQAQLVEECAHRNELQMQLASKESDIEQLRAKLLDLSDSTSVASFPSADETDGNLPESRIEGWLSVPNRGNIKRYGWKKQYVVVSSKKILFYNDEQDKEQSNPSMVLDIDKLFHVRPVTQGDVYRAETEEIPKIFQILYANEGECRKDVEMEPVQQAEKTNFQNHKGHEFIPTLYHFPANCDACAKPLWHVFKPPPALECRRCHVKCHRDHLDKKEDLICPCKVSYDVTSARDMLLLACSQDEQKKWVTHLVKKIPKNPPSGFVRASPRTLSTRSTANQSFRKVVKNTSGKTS
Text: as §1

[4] = CYP3A4, VG substrate, read-out: CYP3A4VG pXC50 (converted)
[5] = CYP3A4, VR substrate, read-out: CYP3A4VR pXC50 (converted)

Cc1cc(Nc2cc(C3CC3)[nH]n2)nc(N2CCCCC2)n1 [NEU-0001127]
IC50 (Cytochrome P450 (CYP450); [4]): 10000 nM | IC50 (Cytochrome P450 (CYP450); [5]): > 50100 nM | IC50 (JAK3): 631 nM | IC50 (LRRK2): 3980 nM | Papp at 3 h, 100 µM [1]: 38 ×10⁻⁶ cm/s | IC50 (JNK1): 1000 nM | IC50 (BTK): 5010 nM | EC50 [2]: 31.6 nM | solubility kinetic at 1 h [3]: 265 µM (≈ 79.1 µg/mL) | IC50 (EGFR): > 25100 nM | IC50 (ROCK1): 20000 nM

O=S1(=O)Cc2ccc(Nc3nccc(-c4ccc(F)cc4)n3)cc2C1 [NEU-0001142]
IC50 (Cytochrome P450 (CYP450); [4]): 2510 nM | IC50 (Cytochrome P450 (CYP450); [5]): 10000 nM | IC50 (JAK3): 631 nM | IC50 (LRRK2): 39.8 nM | Papp at 3 h, 100 µM [1]: 7.7 ×10⁻⁶ cm/s | IC50 (JNK1): 200 nM | IC50 (BTK): 20000 nM | EC50 [2]: 20 nM | solubility kinetic at 1 h [3]: 1 µM (≈ 0.355 µg/mL) | IC50 (EGFR): > 25100 nM | IC50 (ROCK1): > 25100 nM

CCCNc1nc(Nc2cnn(C)c2)c2c(=O)[nH]ccc2n1 [NEU-0001187]
IC50 (Cytochrome P450 (CYP450); [4]): 3980 nM | IC50 (Cytochrome P450 (CYP450); [5]): > 50100 nM | IC50 (JAK3): 2.51 nM | IC50 (LRRK2): 15.8 nM | Papp at 3 h, 100 µM [1]: 33 ×10⁻⁶ cm/s | IC50 (JNK1): 501 nM | IC50 (BTK): 200 nM | EC50 [2]: 79.4 nM | solubility kinetic at 1 h [3]: 252 µM (≈ 75.4 µg/mL) | IC50 (EGFR): 1260 nM | IC50 (ROCK1): 1260 nM

CCCCc1nc(Nc2cccc(C)c2)c2c(=O)[nH]ccc2n1 [NEU-0001191]
IC50 (Cytochrome P450 (CYP450); [4]): 79.4 nM | IC50 (Cytochrome P450 (CYP450); [5]): 6310 nM | IC50 (JAK3): 200 nM | IC50 (LRRK2): 63.1 nM | IC50 (JNK1): 2000 nM | IC50 (BTK): > 25100 nM | EC50 [2]: 79.4 nM | solubility kinetic at 1 h [3]: 22 µM (≈ 6.78 µg/mL) | IC50 (EGFR): > 25100 nM | IC50 (ROCK1): > 25100 nM

CN(C)Cc1ccc(-c2[nH]c3ncc(C#N)cc3c2-c2ccccc2)cc1 [NEU-0001206]
IC50 (Cytochrome P450 (CYP450); [5]): > 50100 nM | IC50 (JAK3): 501 nM | IC50 (LRRK2): 126 nM | Papp at 3 h, 100 µM [1]: 46 ×10⁻⁶ cm/s | IC50 (JNK1): > 25100 nM | IC50 (BTK): 316 nM | EC50 [2]: 100 nM | solubility kinetic at 1 h [3]: 17 µM (≈ 5.99 µg/mL) | IC50 (EGFR): 2510 nM | IC50 (ROCK1): 12600 nM

Cn1cc(-c2cnc3[nH]cc(-c4cccc(C#N)c4)c3c2)cn1 [NEU-0001207]
IC50 (Cytochrome P450 (CYP450); [4]): 1260 nM | IC50 (Cytochrome P450 (CYP450); [5]): 20000 nM | IC50 (JAK3): 631 nM | IC50 (LRRK2): 79.4 nM | Papp at 3 h, 100 µM [1]: 23 ×10⁻⁶ cm/s | IC50 (JNK1): 501 nM | IC50 (BTK): > 25100 nM | EC50 [2]: 100 nM | solubility kinetic at 1 h [3]: 12 µM (≈ 3.59 µg/mL) | IC50 (EGFR): 5010 nM | IC50 (ROCK1): 794 nM

O=C(Nc1ccc(-c2ccnc3[nH]ccc23)s1)C1(Cc2ccccc2)CCCNC1 (stereo not drawn) [NEU-0001240]
IC50 (Cytochrome P450 (CYP450); [4]): 1260 nM | IC50 (Cytochrome P450 (CYP450); [5]): 1580 nM | IC50 (JAK3): 501 nM | IC50 (LRRK2): 316 nM | Papp at 3 h, 100 µM [1]: 18 ×10⁻⁶ cm/s | IC50 (JNK1): > 25100 nM | IC50 (BTK): 794 nM | EC50 [2]: 0.794 nM | solubility kinetic at 1 h [3]: 107 µM (≈ 44.6 µg/mL) | IC50 (EGFR): > 25100 nM | IC50 (ROCK1): 6.31 nM
